Read-outs that look alike come from different tables or passages of the source.
Columns and labels:
DENV-4 = assay: Viral yield assay against DENV-4 in Vero cells; assay type: cell-based; settings: Dengue virus
Method: (§1) Compounds that were active in the primary screen were tested for activity in viral yield assays. […] Vero cells in 12-well plates were infected with dengue-2 virus at a multiplicity of infection (MOI) of 0.1, treated with compound (or DMSO as a control), incubated at 37° C., harvested 48 hours post infection and titered on Vero cells as described above. The EC50 was calculated through ExcelFit. Activities against other serotypes of dengue virus were determined in a similar way.

DENV-1 = assay: Viral yield assay against DENV-1 in Vero cells; assay type: cell-based; settings: Dengue virus
Method: as §1

[1] = test system: Dengue-2 (Strain New Guinea C); assay: Viral yield assay against Dengue-2 in Vero cells; assay type: cell-based, Dengue virus; settings: Dengue virus, read-out: Activity (EC50 in μM) DENV-2
How it was run: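 Virus yield, titered on Vero cells from cultures harvested at 48 h post infection, gave the EC50. Cultures were infected at MOI 0.1 with dengue-2 and treated with compound or DMSO at 37° C. DENV-1 and DENV-4 were determined similarly.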

DENV-3 = assay: Viral yield assay against DENV-3 in Vero cells; assay type: cell-based; settings: Dengue virus
Method: as §1

[2] = DENV2, viral yield assay, Vero cells, MOI 0.1, 48 hours post infection

Nc1c(C(=O)Nc2cccc(C(F)(F)F)c2)sc2nc(-c3ccc4c(c3)OCO4)ccc12 [Compound 453, 3-amino-6-(1,3-benzodioxol-5-yl)-N-[3-(trifluoromethyl)phenyl]thieno[2,3-b] pyridine-2-carboxamide]
EC50 (DENV-4; DENV4, viral yield assay): < 5 µM | EC50 (DENV-1; DENV1, viral yield assay): < 5 µM | EC50 [1, 2]: < 5 µM | EC50 (DENV-3; DENV3, viral yield assay): < 5 µM

Nc1c(C(=O)Nc2ccccc2)sc2nc(-c3cccs3)ccc12 [Compound 411, 3-amino-N-phenyl-6-(2-thienyl)thieno [2,3-b]pyridin-2-carboxamide]
EC50 (DENV-4; DENV4, viral yield assay): < 5 µM | EC50 (DENV-1; DENV1, viral yield assay): < 5 µM | EC50 ([1]; DENV2, Vero, 48 h): < 5 µM | EC50 (DENV-3; DENV3, viral yield assay): < 5 µM

Nc1c(C(=O)/N=c2\[nH]c3ccccc3s2)sc2nc(-c3cccs3)ccc12 [Compound 486, (NE)-3-amino-N-(3H-1,3-benzo-thiazol-2-ylidene)-6-(2-thienyl)thieno [2,3-b]pyridine-2-carboxamide]
EC50 (DENV-4; DENV4, viral yield assay): < 5 µM | EC50 (DENV-1; DENV1, viral yield assay): < 5 µM | EC50 ([1]; DENV2, Vero, 48 h): < 5 µM | EC50 (DENV-3; DENV3, viral yield assay): < 5 µM

Nc1c(C(=O)Nc2ccc(F)cc2)sc2nc(-c3ccc(F)cc3)ccc12 [Compound 490, 3-amino-N,6-bis(4-fluorophenyl) thieno[2,3-b]pyridine-2-carboxamide]
EC50 (DENV-4; DENV4, viral yield assay): < 5 µM | EC50 (DENV-1; DENV1, viral yield assay): < 5 µM | EC50 [1, 2]: < 5 µM | EC50 (DENV-3; DENV3, viral yield assay): 5 to 25 µM

Nc1c(C(=O)Nc2cccc(Cl)c2Cl)sc2nc(-c3ccc(Cl)cc3)ccc12 [Compound 343, 3-amino-6-(4-chlorophenyl)-N-(2,3-dichloro-phenyl)thieno [2,3-b]pyridine-2-carboxamide]
EC50 (DENV-4; DENV4, viral yield assay): < 5 µM | EC50 (DENV-1; DENV1, viral yield assay): < 5 µM | EC50 [1, 2]: < 5 µM | EC50 (DENV-3; DENV3, viral yield assay): < 5 µM

COc1cccc(-c2ccc3c(N)c(C(=O)Nc4ccc(OC(F)(F)F)cc4)sc3n2)c1 [Compound 430, 3-amino-6-(3-methoxyphenyl)-N-[4-(trifluoromethoxy)phenyl]thieno[2,3-b] pyridine-2-carboxamide]
EC50 (DENV-4; DENV4, viral yield assay): < 5 µM | EC50 (DENV-1; DENV1, viral yield assay): < 5 µM | EC50 [1, 2]: < 5 µM | EC50 (DENV-3; DENV3, viral yield assay): < 5 µM

CCCCSc1nc2ccc(NC(=O)c3sc4nc(-c5cccc(OC)c5)ccc4c3N)cc2s1 [Compound 570, 3-amino-N-(2-butylsulfanyl-1,3-benzo-thiazol-6-yl)-6-(3-methoxyphenyl)thieno [2,3-b]pyridine-2-carboxamide]
EC50 (DENV-4; DENV4, viral yield assay): < 5 µM | EC50 (DENV-1; DENV1, viral yield assay): < 5 µM | EC50 [1, 2]: < 5 µM | EC50 (DENV-3; DENV3, viral yield assay): < 5 µM

COc1ccc(-c2ccc3c(N)c(C(=O)Nc4ccc(C(F)(F)F)cc4)sc3n2)cc1OC [Compound 475, 3-amino-6-(3,4-dimethoxyphenyl)-N-[4-(trifluoromethyl)phenyl]thieno[2,3-b] pyridine-2-carboxamide]
EC50 (DENV-4; DENV4, viral yield assay): < 5 µM | EC50 (DENV-1; DENV1, viral yield assay): < 5 µM | EC50 [1, 2]: < 5 µM | EC50 (DENV-3; DENV3, viral yield assay): < 5 µM

CNc1c(C(=O)Nc2nnc(-c3ccccc3)s2)sc2nc3c(cc12)CCCCC3 [Compound 359, 3-(methylamino)-N-(5-phenyl-1,3,4-thiadiazol-2-yl)-6,7,8,9-tetrahydro-5H-cyclohepta[b]thieno[3,2-e]pyridine-2-carboxamide]
EC50 (DENV-4; DENV4): 5 to 25 µM | EC50 (DENV-1; DENV1): < 5 µM | EC50 ([1]; DENV2, Vero cells): < 5 µM | EC50 (DENV-3; DENV3): > 25 µM

Nc1c(C(=O)Nc2cc(Cl)ccc2Cl)sc2nc(-c3cccs3)ccc12 [Compound 433, 3-amino-N-(2,5-dichlorophenyl)-6-(2-thienyl)thieno[2,3-b]pyridine-2-carboxamide]
EC50 (DENV-4; DENV4, viral yield assay): < 5 µM | EC50 (DENV-1; DENV1, viral yield assay): < 5 µM | EC50 [1, 2]: < 5 µM | EC50 (DENV-3; DENV3, viral yield assay): < 5 µM

CSc1ccc(NC(=O)c2sc3nc(-c4ccc(F)cc4)ccc3c2N)cc1 [Compound 625, 3-amino-6-(4-fluorophenyl)-N-(4-methylsulfanylphenyl)thieno[2,3-b] pyridine-2-carboxamide]
EC50 (DENV-4; DENV4, viral yield assay): > 25 µM | EC50 (DENV-1; DENV1, viral yield assay): < 5 µM | EC50 [1, 2]: < 5 µM | EC50 (DENV-3; DENV3, viral yield assay): < 5 µM

Nc1c(C(=O)Nc2ccc(OC(F)(F)F)cc2)sc2nc(-c3cccc(OC(F)(F)F)c3)ccc12 [Compound 332, 3-amino-6-[3-(trifluoromethoxy)phenyl]-N-[4-(trifluoromethoxy)phenyl]thieno[2,3-b]pyridine-2-carboxamide]
EC50 (DENV-4; DENV4, viral yield assay): < 5 µM | EC50 (DENV-1; DENV1, viral yield assay): < 5 µM | EC50 [1, 2]: < 5 µM | EC50 (DENV-3; DENV3, viral yield assay): < 5 µM

Nc1c(C(=O)Nc2ccc(Br)cc2F)sc2nc(-c3ccc(F)cc3)ccc12 [Compound 616, 3-amino-N-(4-bromo-2-fluoro-phenyl)-6-(4-fluorophenyl)thieno[2,3-b]pyridine-2-carboxamide]
EC50 (DENV-4; DENV4, viral yield assay): < 5 µM | EC50 (DENV-1; DENV1, viral yield assay): < 5 µM | EC50 [1, 2]: < 5 µM | EC50 (DENV-3; DENV3, viral yield assay): < 5 µM

Nc1c(C(=O)N(c2ccccc2)c2ccccc2)sc2nc3c(cc12)CCCCC3 [Compound 373, 3-amino-N,N-diphenyl-6,7,8,9-tetrahydro-5H-cyclohepta[b]thieno[3,2-e]pyridine-2-carboxamide]
EC50 (DENV-4; DENV4, viral yield assay): < 5 µM | EC50 (DENV-1; DENV1, viral yield assay): < 5 µM | EC50 [1, 2]: < 5 µM | EC50 (DENV-3; DENV3, viral yield assay): < 5 µM

NCCNc1c(C(=O)Nc2nnc(-c3ccccc3)s2)sc2nc3c(cc12)CCCCC3 [Compound 294, 3-((2-aminoethyl)amino)-N-(5-phenyl-1,3,4-thiadiazol-2-yl)-6,7,8,9-tetrahydro-5H-cyclohepta[b]thieno[3,2-e]pyridine-2-carboxamide]
EC50 (DENV-4; DENV4): < 5 µM | EC50 (DENV-1; DENV1): < 5 µM | EC50 ([1]; DENV2, Vero cells): < 5 µM | EC50 (DENV-3; DENV3): < 5 µM

COc1ccc(-c2ccc3c(N)c(C(=O)Nc4ccc(C)c(Cl)c4)sc3n2)cc1OC [Compound 574, 3-amino-N-(3-chloro-4-mehtyl-phenyl)-6-(3,4-dimethoxyphenyl)thieno[2,3-b] pyridine-2-carboxamide]
EC50 (DENV-4; DENV4, viral yield assay): < 5 µM | EC50 (DENV-1; DENV1, viral yield assay): < 5 µM | EC50 [1, 2]: < 5 µM | EC50 (DENV-3; DENV3, viral yield assay): < 5 µM

COc1cccc(-c2ccc3c(N)c(C(=O)Nc4ccc(Br)c(C)c4)sc3n2)c1 [Compound 550, 3-amino-N-(4-bromo-3-methyl-phenyl)-6-(3-methoxyphenyl)thieno[2,3-b] pyridine-2-carboxamide]
EC50 (DENV-4; DENV4, viral yield assay): < 5 µM | EC50 (DENV-1; DENV1, viral yield assay): < 5 µM | EC50 [1, 2]: < 5 µM | EC50 (DENV-3; DENV3, viral yield assay): < 5 µM

CC(=O)Nc1c(C(=O)Nc2nnc(-c3ccccc3)s2)sc2nc3c(cc12)CCCCC3 [Compound 358, 3-acetamido-N-(5-phenyl-1,3,4-thiadiazol-2-yl)-6,7,8,9-tetrahydro-5H-cyclohepta[b]thieno[3,2-e]pyridine-2-carboxamide]
EC50 (DENV-4; DENV4): > 25 µM | EC50 (DENV-1; DENV1): < 5 µM | EC50 ([1]; DENV2, Vero cells): < 5 µM | EC50 (DENV-3; DENV3): 5 to 25 µM

CCOc1ccc(NC(=O)c2sc3nc(-c4ccc(OC)c(OC)c4)ccc3c2N)cc1 [Compound 635, 3-amino-6-(3,4-dimethoxyphenyl)-N-(4-ethoxyphenyl)thieno[2,3-b]pyridine-2-carboxamide]
EC50 (DENV-4; DENV4, viral yield assay): < 5 µM | EC50 (DENV-1; DENV1, viral yield assay): < 5 µM | EC50 [1, 2]: < 5 µM | EC50 (DENV-3; DENV3, viral yield assay): > 25 µM

Nc1c(C(=O)Nc2nnc(-c3ccccc3)s2)sc2nc(Cl)ccc12 [Compound 292]
EC50 (DENV-4; DENV4, viral yield assay): < 5 µM | EC50 (DENV-1; DENV1, viral yield assay): < 5 µM | EC50 [1, 2]: < 5 µM | EC50 (DENV-3; DENV3, viral yield assay): < 5 µM

NCCNc1c(C(=O)Nc2nnc(-c3ccccc3)s2)sc2nc(Cl)ccc12 [Compound 300, 3-(2-aminoethylamino)-6-chloro-N-(5-phenyl-1,3,4-thiadiazol-2-yl)thieno[2,3-b]pyridine-2-carboxamide]
EC50 (DENV-4; DENV4): < 5 µM | EC50 (DENV-1; DENV1): < 5 µM | EC50 ([1]; DENV2, Vero cells): < 5 µM | EC50 (DENV-3; DENV3): < 5 µM

Nc1c(C(=O)Nc2cccc(F)c2)sc2nc(-c3ccc4c(c3)OCO4)ccc12 [Compound 602, 3-amino-6-(1,3-benzodioxol-5-yl)-N-(3-fluorophenyl)thieno[2,3-b]pyridine-2-carboxamide]
EC50 (DENV-4; DENV4, viral yield assay): 5 to 25 µM | EC50 (DENV-1; DENV1, viral yield assay): < 5 µM | EC50 ([1]; DENV2, Vero, 48 h): < 5 µM | EC50 (DENV-3; DENV3, viral yield assay): < 5 µM

Nc1c(C(=O)Nc2cccc(Cl)c2Cl)sc2nc(-c3cccs3)ccc12 [Compound 434, 3-amino-N-(2,3-dichlorophenyl)-6-(2-thienyl)thieno[2,3-b]pyridine-2-carboxamide]
EC50 (DENV-4; DENV4, viral yield assay): < 5 µM | EC50 (DENV-1; DENV1, viral yield assay): < 5 µM | EC50 [1, 2]: < 5 µM | EC50 (DENV-3; DENV3, viral yield assay): < 5 µM

COc1ccc(-c2ccc3c(N)c(C(=O)Nc4ccc(C)cc4Br)sc3n2)cc1OC [Compound 576, 3-amino-N-(2-bromo-4-methyl-phenyl)-6-(3,4-dimethoxyphenyl)thieno[2,3-b] pyridine-2-carboxamide]
EC50 (DENV-4; DENV4, viral yield assay): < 5 µM | EC50 (DENV-1; DENV1, viral yield assay): < 5 µM | EC50 [1, 2]: < 5 µM | EC50 (DENV-3; DENV3, viral yield assay): < 5 µM

Nc1c(C(=O)Nc2ccc(F)c(F)c2)sc2nc(-c3ccc4c(c3)OCO4)ccc12 [Compound 597, 3-amino-6-(1,3-benzodioxol-5-yl)-N-(3,4-difluorophenyl)thieno[2,3-b]pyridine-2-carboxamide]
EC50 (DENV-4; DENV4, viral yield assay): < 5 µM | EC50 (DENV-1; DENV1, viral yield assay): < 5 µM | EC50 ([1]; DENV2, Vero, 48 h): < 5 µM | EC50 (DENV-3; DENV3, viral yield assay): < 5 µM

COc1cccc(-c2ccc3c(N)c(C(=O)Nc4cccc(Br)c4)sc3n2)c1 [Compound 447, 3-amino-N-(3-bromophenyl)-6-(3-methoxyphenyl)thieno[2,3-b]pyridine-2-carboxamide]
EC50 (DENV-4; DENV4, viral yield assay): < 5 µM | EC50 (DENV-1; DENV1, viral yield assay): < 5 µM | EC50 [1, 2]: < 5 µM | EC50 (DENV-3; DENV3, viral yield assay): < 5 µM

Nc1c(C(=O)Nc2ccc(C(F)(F)F)cc2)sc2nc(-c3ccncc3)ccc12 [Compound 465, 3-amino-6-(4-pyridyl)-N-[4-(trifluoromethyl)phenyl]thieno[2,3-b] pyridine-2-carboxamide]
EC50 (DENV-4; DENV4, viral yield assay): < 5 µM | EC50 (DENV-1; DENV1, viral yield assay): < 5 µM | EC50 [1, 2]: < 5 µM | EC50 (DENV-3; DENV3, viral yield assay): < 5 µM

Reference: US20170121344A1 (Siga Technologies, Inc., priority 2009, published 2017)
